Data set [1] has as its target Heat shock protein HSP90 (Homo sapiens, UniProt P07900+P08238). Nature of the data set: Inhibition of HSP90 in human SKBR3 cells assessed as induction of Her2 degradation. To be noted: sk-br-3. It counts as cell-based.
The test system of data set [2] is BT-474. Nature of the data set: Growth inhibition of human BT474 cells. The data set is classed as functional, cell-based.
The test system of data set [3] is MCF7. Description: Growth inhibition of human MCF7 cells. The data set is classed as functional, cell-based.
Data set [4] in a line: Inhibition of HSP90 by fluorescence polarization assay. For orientation: In fluorescence polarisation assays a small probe gives low polarisation when free and higher when bound to something large.
The test system of data set [5] is HT-29. Description: Growth inhibition of human HT-29 cells. It counts as functional, cell-based.
Data set [6] has as its system SK-BR-3. Description: Growth inhibition of human SKBR3 cells. The data set is classed as functional, cell-based.
The test system of data set [7] is HMEC. Nature of the data set: Growth inhibition of HMEC cells. The data set is classed as cell-based. The conditions noted are these: Homo sapiens.
Data set [8] has as its system HMEC. Nature of the data set: Selectivity index, ratio of IC50 for HMEC cells to IC50 for human BT474 cells. It counts as functional.
The subject of data set [9] is HMEC. Description: Selectivity index, ratio of IC50 for HMEC cells to IC50 for human SKBR3 cells. The data set is classed as functional.
Data set [10] has as its system HT-29. Description: Selectivity index, ratio of IC50 for HMEC cells to IC50 for human HT-29 cells. The data set is classed as functional.
Data set [11] deals with MCF7. Description: Selectivity index, ratio of IC50 for HMEC cells to IC50 for human MCF7 cells. It counts as functional.
A short description of data set [12]: Metabolic stability in rat liver microsomes. The data set is classed as ADME, Microsome. A general note: Liver microsomes are vesicles of endoplasmic reticulum, rich in cytochrome P450 enzymes.
A short description of data set [13]: Oral bioavailability in rat. The data set is classed as ADME, organism-based. To be noted: in vivo.
Data set [14] is described as follows: Metabolic stability in human liver microsomes. The data set is classed as ADME, Microsome.
Data set [15] is described as follows: Metabolic stability in mouse liver microsomes. The data set is classed as ADME, Microsome.
A short description of data set [16]: Aqueous solubility at pH 3. It counts as physicochemical.

In brackets after ≈: the same amount, converted by molar mass. A value given as a limit tells only on which side of the number the result lay.

For `COc1c(C)cnc(CN2c3nc(N)nc(Cl)c3NC(=O)[C@H]2C)c1C`, the IC50 was determined as 0.35 µM in [1]; 410 nM in [2]; 790 nM in [3]; 400 nM in data set [4]; 470 nM in data set [5]; 220 nM in data set [6].
For the compound `COc1c(C)cnc(CN2CC(=O)N(CCN3CCCC3)c3c(Cl)nc(N)nc32)c1C`, the half-maximal inhibitory concentration (IC50) in data set [1] was 0.51 µM; in data set [2] it was 520 nM; in data set [3] it was 1320 nM; in data set [4], 660 nM; in [5] it was 1080 nM; in [6], 300 nM.
As for `COc1c(C)cnc(CN2CC(=O)N(C3CCCC3)c3c(Cl)nc(N)nc32)c1C`, the IC50 came to 0.11 µM in data set [1]; 290 nM in data set [2]; 820 nM in data set [3]; 330 nM in data set [5]; 120 nM in data set [6].
For `COc1c(C)cnc(CN2CC(=O)N(C(C)C)c3c(Cl)nc(N)nc32)c1C`, the IC50 in data set [1] came to 0.05 µM; in data set [2], 30 nM; in data set [3] it was 50 nM; in [4], 70 nM; in [5], 60 nM; in data set [6], 20 nM. Also, in data set [7], the IC50 was found to be 320 nM.
Regarding `COc1nc(N)nc2c1N(CC(C)C)C(=O)CN2Cc1ncc(C)c(OC)c1C`, the IC50 in [1] worked out at 1.07 µM.
Turning to `COc1c(C)cnc(CN2c3nc(N)nc(Cl)c3N(CC(C)C)C(=O)[C@@H]2C)c1C`, the IC50 in data set [1] was greater than 5 µM.
Consider `COc1c(C)cnc(CN2CCNc3c(Cl)nc(N)nc32)c1C`, for which the results for the IC50 in [1] and in data set [4] were greater than 5 µM and greater than 5000 nM, respectively.
With `COc1c(C)cnc(CN2CC(=O)N(C(=O)NCCN3CCOCC3)c3c(Cl)nc(N)nc32)c1C`, the IC50 in data set [1] was greater than 10 µM; in [2], greater than 100000 nM; in data set [3] it was 2140 nM; in [5], 1200 nM; in data set [6], greater than 5000 nM.
As to `COc1ccnc(CN2CC(=O)N(CC(C)C)c3c(Cl)nc(N)nc32)c1OC`, the IC50 in [1] came to 0.16 µM; in data set [2] it was 30 nM; in data set [3], 100 nM; in data set [5] it was 40 nM; in data set [6], 10 nM; in data set [7], 240 nM. The “Ratio IC50” value in data set [8] is recorded as 6; in data set [9] it was 6; in [10], 6; in [11], 2.
As to `COc1c(C)cnc(CN2CC(=O)N(CC(C)C)c3c(Cl)nc(N)nc32)c1C`, the IC50 stood at 0.04 µM in data set [1]; 20 nM in data set [2]; 70 nM in data set [3]; 50 nM in data set [4]; 40 nM in data set [5]; 10 nM in data set [6]. The compound further gave a concentration for half-maximal inhibition (IC50) in data set [7] of 130 nM. Further, the “Ratio IC50” value came to 6 in [8], 13 in data set [9], 3 in data set [10] and 2 in data set [11].
As to `COc1c(C)cnc(CN2c3nc(N)nc(Cl)c3N(CC(C)C)C(=O)[C@@H]2C(C)C)c1C`, the IC50 in data set [1] was greater than 5 µM.
On to `COc1c(C)cnc(Cn2c(=O)c(=O)[nH]c3c(Cl)nc(N)nc32)c1C`, for which the 50% inhibitory concentration (IC50) in data set [1] was greater than 5 µM.
Regarding `Cc1cnc(CN2CC(=O)N(CC(C)C)c3c(Cl)nc(N)nc32)c(C)c1Cl`, the IC50 in data set [1] stood at 0.59 µM; in [2], 240 nM; in data set [3], 470 nM; in data set [5], 280 nM; in [6] it was 110 nM.
For `COc1c(C)cnc(CN2CC(=O)N(CC(C)C)c3c(C)nc(N)nc32)c1C`, the IC50 in [1] was 0.98 µM.
As to `COc1c(C)cnc(CN2CC(=O)N(CCCN3CCOCC3)c3c(Cl)nc(N)nc32)c1C`, the IC50 stood at 1.55 µM in data set [1]; 1810 nM in [2]; 2590 nM in data set [3]; 2950 nM in data set [5]; 1110 nM in [6].
In the case of `COc1c(C)cnc(CN2c3nc(N)nc(Cl)c3NC(=O)[C@@H]2CC(C)C)c1C`, the IC50 is 0.37 µM in [1]; 490 nM in data set [2]; 930 nM in data set [3]; 690 nM in data set [5]; 230 nM in data set [6].
Regarding `COc1nc(CN2CC(=O)N(CC(C)C)c3c(Cl)nc(N)nc32)c(Cl)c(OC)c1OC`, the IC50 in [1] is greater than 5 µM.
Turning to `COc1c(C)cnc(CN2CC(=O)Nc3c(Cl)nc(N)nc32)c1C`, the half-life in data set [12], in [14] and in data set [15] was greater than 60 min each time. This compound also gave a bioavailability in [13] of 60%. The IC50 was 0.57 µM in [1]; 650 nM in data set [2]; 1490 nM in data set [3]; 880 nM in data set [4]; 1180 nM in data set [5]; 390 nM in data set [6]. The same compound came in with a solubility in [16] of 381 µM (≈ 133 µg/mL).
For `COc1c(C)cnc(CN2CC(OC3CCCC3)=Nc3c(Cl)nc(N)nc32)c1C`, the IC50 was found to be 0.01 µM in data set [1]; 10 nM in data set [2]; 40 nM in data set [3]; 20 nM in [5]; 5 nM in data set [6].
On to `COc1c(C)cnc(CN2CC(=O)N(C)c3c(Cl)nc(N)nc32)c1C`, for which the IC50 in [1] was 0.93 µM; in data set [2], 950 nM; in [3] it was 2190 nM; in [4], 960 nM; in [5] it was 1470 nM; in [6], 460 nM.
For the compound `COc1c(C)cnc(CN2CC(=O)N(C(C)C(=O)NCCN(C)C)c3c(Cl)nc(N)nc32)c1C` (stereo not drawn), the IC50 in [1] is 0.1 µM; in data set [2], 60 nM; in [3], 120 nM; in data set [5] it was 100 nM; in data set [6], 30 nM.
Turning to `COc1c(C)cnc(CN2c3nc(N)nc(Cl)c3NC(=O)[C@@H]2C(C)C)c1C`, the IC50 is 0.65 µM in [1]; 760 nM in data set [2]; 1600 nM in data set [3]; 2140 nM in data set [4]; 1060 nM in [5]; 430 nM in data set [6].
On to `Cc1cnc(CN2CC(=O)N(CC(C)C)c3c(Cl)nc(N)nc32)c(C)c1Br`, for which the IC50 was found to be 0.1 µM in [1]; 130 nM in data set [2]; 280 nM in [3]; 60 nM in data set [4]; 140 nM in data set [5]; 60 nM in [6]. For the same compound, inhibition in data set [7] was half-maximal at 180 nM (IC50).
Regarding `COc1c(C)cnc(CN2c3nc(N)nc(Cl)c3NC(=O)[C@@H]2CCO)c1C`, the IC50 in data set [1] was 0.28 µM; in data set [4] it was 640 nM.
As to `COc1c(C)cnc(CN2c3nc(N)nc(Cl)c3NC(=O)[C@@H]2C)c1C`, the IC50 is 0.43 µM in data set [1]; 470 nM in data set [2]; 940 nM in data set [3]; 660 nM in data set [5]; 250 nM in [6].
For the compound `COc1c(C)cnc(CN2CC(=O)N(CCCC(C)C)c3c(Cl)nc(N)nc32)c1C`, the IC50 in [1] stood at 1.91 µM; in [2] it was 1650 nM; in [3], 3110 nM; in data set [4], 900 nM; in [5], 2260 nM; in data set [6], 970 nM.
With `COc1c(C)cnc(CN2c3nc(N)nc(Cl)c3N(C(C)C)C(=O)[C@@H]2C(C)C)c1C`, the concentration for half-maximal inhibition (IC50) was determined as 0.06 µM in [1]; 20 nM in [2]; 40 nM in data set [3]; 80 nM in data set [4]; 90 nM in data set [5]; 5 nM in data set [6].
For `COc1c(C)cnc(Cn2c(=O)cnc3c(Cl)nc(N)nc32)c1C`, the IC50 in data set [1] is greater than 10 µM.

Broadly, the IC50 is the point on the concentration scale where inhibition reaches its midpoint. What is called half-life is how long it takes for the measured level to halve. Low values mean fast loss, high ones slow loss. The term bioavailability denotes dose-corrected exposure relative to a reference, in per cent. A lower bioavailability goes with little systemic uptake. The term solubility denotes the dissolved amount per volume that the medium holds. Low readings indicate a poorly soluble substance, high ones a readily soluble substance.
